Laboratory results taken from patent publication US10577362B2, “Substituted 2, 4-diamino-quinoline derivatives for use in the treatment of proliferative diseases” (GENOSCIENCE PHARMA, priority 2016, dated 2020).

Assays:
[1] = system: HepG2 (hepatocellular carcinoma) cell line; assay: CellTiter-Glo luminescent cell viability assay, HepG2; type: cell-based, human; conditions: Homo sapiens; for viability at 4 µM / viability at 10 µM: HepG2, HepG, 72 h; for viability at 4 µM: compound at 4 μM; for viability at 10 µM: compound at 10 μM; for EC50: HepG2 cell line, 72 h incubation, CellTiter-Glo, read-out: EC50, growth inhibition of HepG2
In short: (§1)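 EC50 is the concentration cutting CellTiter-Glo luminescence to half that of H2O- or DMSO-treated controls after 72 h compound exposure, with each point in at least duplicate. HepG2, Huh7 and PANC-1 were seeded the night before; MOLM-14 1 h prior; all cultured with 10% FBS, 37 °C, 5% CO2.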

[2] = system: MOLM-14 (acute myeloid leukemia) cell line; assay: CellTiter-Glo luminescent cell viability assay, MOLM-14; type: cell-based, human; conditions: Homo sapiens; for viability at 4 µM: MOLM-14, compound at 4 μM; for viability at 4 µM / viability at 10 µM: 72 h; for viability at 10 µM: MOLM-14, compound at 10 μM; for EC50: MOLM-14 cell line, 72 h incubation, CellTiter-Glo, read-out: EC50, growth inhibition of MOLM-14
In short: as §1

[3] = system: Huh7 (hepatocellular carcinoma) cell line; assay: CellTiter-Glo luminescent cell viability assay, Huh7; type: cell-based, human; conditions: Homo sapiens, Huh-7; for viability at 4 µM: Huh7, compound at 4 μM; for viability at 4 µM / viability at 10 µM: 72 h; for viability at 10 µM: Huh7, compound at 10 μM; for EC50: Huh7 cell line, 72 h incubation, CellTiter-Glo, read-out: EC50, growth inhibition of Huh7
In short: as §1

[4] = system: PANC-1 (prancreatic carcinoma) cell line; assay: CellTiter-Glo luminescent cell viability assay, PANC-1; type: cell-based; conditions: Homo sapiens; for viability at 4 µM: PANC-1, 4 μM; for viability at 4 µM / viability at 10 µM: 72 h, % of signal of diluent-treated cultures; for viability at 10 µM: PANC-1, 10 μM
Description: All cell lines were maintained in medium containing 1% penicillin-streptomycin (Dutscher, P06-07100) and 10% Fetal Bovine Serum (Hyclone Dutscher, RZK35922) cultured at 37° C. with 5% CO2. HepG2 (hepatocellular carcinoma), cell line was cultured in Dulbecco's modified Eagle's medium low glucose (Gibco, 21885025), Huh7 (hepatocellular carcinoma), HCT-116 (colorectal carcinoma), PANC-1 (prancreatic carcinoma) and A375 (malignant melanoma) cell lines were cultured in Dulbecco's modified Eagle's medium (Dutscher, L0103). MOLM-14 (acute myeloid leukemia) cell line was maintained in MEM alpha medium (Gibco, 22561-021). 786-0 (renal adenocarcinoma) cell lines were maintained in RPMI 1640 medium (Dutscher, L0498).
Cell viability was measured using the CellTiter-Glo® luminescent cell viability assay as described by the manufacturer (Promega, Ref G7571) using an Infinite F200Pro luminometer (Tecan). Briefly, for adherent cells, cells were plated onto 96-well plates (white with clear bottom) in 90 μL of media per well and were allowed to grow overnight before the assay. For cells growing in suspension, cells were plated onto 96-well plates 1 h before the assay.
Compounds were resuspended in H2O or DMSO and added at different concentrations to each well, and cell cultures were incubated for 72 h. Each diluent (H2O or DMSO) were used as a control, and all compounds were tested in a constant percentage of H2O or DMSO. On the day of the reading, plates are equilibrated 30 min at room temperature before the addition of 100 μL of CellTiter-Glo® and luminescence was measured using an Infinite F200Pro (Tecan). % cell viability were expressed as a percentage of the signal obtained for cell cultures treated with diluent. EC50 values were determined as the dose of compound required to reduce luminescent values to 50% of the signal obtained for cell cultures treated with diluent. The experimental data were analyzed using a computer program, Graphpad Prism v5 (GraphPad Software, Inc. La Jolla, Calif.). All points were at least done in duplicate.

[5] = system: HCT-116 (colorectal carcinoma) cell line; assay: CellTiter-Glo luminescent cell viability assay, HCT-116; type: cell-based, human; conditions: Homo sapiens; for viability at 4 µM: HCT-116, compound at 4 μM; for viability at 4 µM / viability at 10 µM: 72 h; for viability at 10 µM: HCT-116, compound at 10 μM; for EC50: HCT-116 cell line, 72 h incubation, CellTiter-Glo, read-out: EC50, growth inhibition of HCT-116
In short: (§2)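 Cells were cultured at 37 °C, 5% CO2 with 10% FBS; adherent lines were plated overnight, suspension MOLM-14 plated 1 h before dosing. Compounds in H2O or DMSO were added at various concentrations for 72 h, and viability was read by luminescence. EC50 is the dose reducing signal to 50% of diluent control.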

[6] = system: A375 (malignant melanoma) cell line; assay: CellTiter-Glo luminescent cell viability assay, A375; type: cell-based, human; conditions: Homo sapiens, A-375; for viability at 4 µM: A375, compound at 4 μM; for viability at 4 µM / viability at 10 µM: 72 h; for viability at 10 µM: A375, compound at 10 μM; for EC50: A375 cell line, 72 h incubation, CellTiter-Glo, read-out: EC50, growth inhibition of A375
In short: as §2

[7] = system: 786-O (renal adenocarcinoma) cell line; assay: CellTiter-Glo luminescent cell viability assay, 786-O; type: cell-based, human; conditions: Homo sapiens, 786-0; for viability at 4 µM / viability at 10 µM: 786-O, 72 h; for viability at 4 µM: compound at 4 μM; for viability at 10 µM: compound at 10 μM; for EC50: 786-O cell line, 72 h incubation, CellTiter-Glo, read-out: EC50, growth inhibition of 786-O
In short: as §2

Compound | viability at 4 µM [1] | viability at 10 µM [1] | viability at 4 µM [2] | viability at 10 µM [2] | viability at 4 µM [3] | viability at 10 µM [3] | viability at 4 µM [4] | viability at 10 µM [4] | viability at 4 µM [5] | viability at 10 µM [5] | viability at 4 µM [6] | viability at 10 µM [6] | viability at 4 µM [7] | viability at 10 µM [7] | EC50 [1] | EC50 [2] | EC50 [3] | EC50 [5] | EC50 [6] | EC50 [7] | further results
Cn1cc(Nc2nc3ccccc3c(N3CCC(NC(C)(C)C)CC3)c2C#N)cn1 [Compound 3268CN, 2-[(1-methyl-1H-pyrazol-4-yl)amino]-3-cyano-4-[4-(tert-butylamino)piperidin-1-yl]quinoline] | 68.6% | 56% | 91% | 77.6% | 94% | 64.8% | 95.8% | 43.6% | 73.7% | 22.6% | 61.8% | 11.3% | 109% | 80.1% |  |  |  |  |  |  | 
N#Cc1c(NCc2ccc(Cl)cc2)nc2ccccc2c1N1CCC(N2CCOCC2)C1 (centres unmarked) [Compound 150CN, 2-(4-chloro-benzylamino)-3-cyano-4-(3-morpholino-pyrrolidin-1-yl)quinoline] | 100% | 103% | 109% | 114% | 93.8% | 90.4% | 101% | 101% | 99.5% | 95.1% | 97.9% | 96.8% | 96.1% | 91.4% |  |  |  |  |  |  | 
CC(C)(C)NC1CCN(c2c(C#N)c(NCc3ccncc3)nc3ccccc23)CC1 [Compound 3306CN, 2-[(pyridin-4-ylmethyl)amino]-3-cyano-4-[4-(tert-butylamino)piperidin-1-yl]quinoline] | 83.4% | 71.6% | 97.6% | 94.5% | 91.7% | 82.4% | 101% | 93.3% | 83.9% | 72.6% | 79.2% | 77.4% | 84% | 71.7% |  |  |  |  |  |  | 
Cc1ccc(CNc2nc3ccccc3c(N3CCC(NC(C)(C)C)CC3)c2C#N)cc1 [Compound 3288CN, 2-(4-methylbenzylamino)-3-cyano-4-[4-(tert-butylamino)piperidin-1-yl]quinoline] | 0.6% | 0.3% | 62.8% | 0.4% | 0.6% | 0.3% | 63.5% | 0.6% | 0.5% | 0.2% | 0.5% | 0.3% | 1.9% | 0.3% | 500 to 5000 nM | 500 to 5000 nM | 500 to 5000 nM | 500 to 5000 nM | 500 to 5000 nM | 500 to 5000 nM | EC50 ([4]; PANC-1 cell line, 72 h incubation, CellTiter-Glo, read-out: EC50 (growth inhibition assay of PANC-1 cell line)): 5000 to 10000 nM
CN1CCC(NC2CCN(c3c(C#N)c(NCc4ccc(Cl)cc4)nc4ccccc34)CC2)CC1 [Compound 3182CN, 2-(4-chlorobenzylamino)-3-cyano-4-{4-[(1-methylpiperidin-4-yl)amino]piperidin-1-yl}quinoline] | 0.5% | 0.3% | 0.6% | 0.4% | 0.6% | 0.4% | 0.8% | 0.5% | 0.5% | 0.3% | 0.5% | 0.4% | 0.6% | 0.4% | 500 to 5000 nM | 500 to 5000 nM | 500 to 5000 nM | 500 to 5000 nM | 500 to 5000 nM | 50 to 500 nM | 
